Experimental data reported in US20190134060A1, “25-HYDROXYCHOLESTEROL AND METHODS OF USE THEREOF” (priority 2016, published 2019).
“Also recorded” adds a separate entry of the source.

Experiments:
[1] = tested on: hippocampal cultures; assay: NMDA-induced cell death (NMDA toxicity) in hippocampal cultures; format: cell-based
Procedure: If the neuroprotective effects of 25-HC are entirely through antagonism of NMDAR function and endogenous, local 24S-HC, it would be expected that 25-HC should also reduce direct NMDA-induced cell death. NMDA was exogenously applied at either 8 μM or 20 μM to induce mild or severe toxicity (FIG. 5A).
(§1) Cell culture. All animal care and experimental procedures were consistent with National Institutes of Health guidelines and were approved by the Washington University Animal Studies Committee. Studies involving animals are reported in accordance with the ARRIVE guidelines for reporting experiments involving animals (12, 13). Rat or mouse hippocampal cultures were prepared from postnatal day 1 to 3, pups of both sexes (85% female) anaesthetized with isoflurane. Hippocampal slices (500 μm thickness) were digested with 1 mg⋅mL^−1 papain in oxygenated LeibovitzL-15 medium (Life Technologies, Gaithersburg, Md., USA). Tissue was mechanically triturated in modified Eagle's medium (Life Technologies) containing 5% horse serum, 5% FCS, 17 mM D glucose, 400 μM glutamine, 50 U⋅mL^−1 penicillin and 50 μg⋅mL^−1 streptomycin. Cells were seeded in modified Eagle's medium at a density of ˜650 cells per mm^2 (onto 25 mm cover glasses coated with 5 mg⋅mL^−1 collagen or 0.1 mg⋅mL^−1 poly-D-lysine with 1 mg⋅mL^−1 laminin). Cultures were incubated at 37° C. in a humidified chamber with 5% CO2/95% air. Cytosine arabinoside (6.7 μM) was added 3-4 days after plating to inhibit glial proliferation. The following day, half of the culture medium was replaced with Neurobasal medium (Life Technologies) plus B27 supplement (Life Technologies).
(§2) Data analysis. Five 10× microscope fields were quantified per condition per experiment, yielding>100 total neurons for each condition. Ratios of healthy neurons were quantified as the fraction of PI-negative neuronal nuclei to total neuronal nuclei. Automated cell counting algorithms (ImageJ software, National Institutes of Health, Bethesda, Md., USA) were used for cell counts. Toxicity experiments were treated as a dependent sample design (32) in which sibling cultures plated in identical media and exposed to OGD at the same time were compared by repeated measures statistics. Results are shown as means±SEM. Comparative statistics were performed with Student's t-test or one-way repeated measures ANOVA where indicated.

[2] = tested on: rat hippocampal cultures; assay: Oxygen-glucose deprivation (OGD, 2.5 hours)-induced cell death, PI/Hoechst survival; format: cell-based; settings: for OGD-induced cell death exacerbated by 24S-HC, effect of NMDAR antagonist: co-treatment prior to and during OGD
Procedure: as §1
(§3) Oxygen-glucose deprivation. Mass cultures (13-14 DIV) were exposed to oxygen-glucose deprivation (OGD), in which original medium containing 25 mM glucose was exchanged for fresh MEM medium […] and exposed to a sealed chamber (Billups-Rothenberg, Del Mar, Calif., USA), humidified and saturated with 95% nitrogen and 5% CO2 at 37° C., for 2.5 hours. The gas exchange followed the specifications of the chamber manufacturer (flow of 20 L⋅minute^−1 for 4 minutes to achieve 100% gas exchange). In some experiments, original medium was exchanged for fresh MEM medium containing the specified drugs immediately prior to OGD exposure. Controls were incubated in MEM medium without oxygen deprivation. Following OGD or control treatment, cells were returned to their original medium and incubated under standard culture conditions until the cell death assay (24 hours later). Hoechst 33342 (5 μM) was used to identify all nuclei and propidium iodide (PI, 3 μM) for 30 minutes to stain nuclei of cells with compromised membranes.
as §2

[3] = tested on: NMDARs; settings: cited from earlier work
[4] = tested on: hippocampal neuron cultures from C571Bl/6 mice; assay: NMDAR-independent neuroprotection in WT and CYP46A1 knockout mouse hippocampal neuron cultures; format: cell-based
Procedure: (§4) FIG. 6A, FIG. 6B, FIG. 6C, FIG. 6D, and FIG. 6E depict graphs showing that 25-HC has an NMDAR-independent protecting effect on OGD-induced cell death. (FIG. 6A) Survival rate was compared between control, OGD (3 hour), OGD (3 hour)+MK-801, and OGD (3 hour) +MK-801+25-HC. […] 25-HC protected against the MK-801 insensitive OGD-induced cell death. (n=12 cultures for each group, one-way repeated measures ANOVA with Bonferroni's post hoc test, *p<0.05, ***p<0.001). […] (FIG. 6C) H2O2 (100 μM, 1 hour treatment) toxicity was used to test neuroprotection of 25-HC. 25-HC again yielded mild but reliable protection (N=10 cultures for each group, one-way repeated measures ANOVA with Bonferroni's post hoc test, *P<0.05). (FIG. 6D) and (FIG. 6E) Neither WT nor CYP46A1 knockout hippocampal neuron cultures from C571Bl/6 mice was sensitive to the mild NMDAR independent neuroprotective effect of 25-HC (N=7 cultures for each group; P>0.05).
(§5) To further test the NMDAR-independence neuroprotective effect, a model of oxidative damage: H2O2 induced toxicity was used.
Cell culture. All animal care and experimental procedures were consistent with National Institutes of Health guidelines and were approved by the Washington University Animal Studies Committee. Studies involving animals are reported in accordance with the ARRIVE guidelines for reporting experiments involving animals (12, 13). […]

[5] = tested on: hippocampal cultures; assay: H2O2 induced toxicity (model of oxidative damage); format: cell-based; settings: H2O2 100 μM, 1 hour treatment; in the presence of MK-801
Procedure: as §4, §5

[6] = tested on: hippocampal cultures; assay: More severe OGD (3 hours) with NMDAR blockade by MK-801, cell death; format: cell-based; settings: for normalized survival: n=9 cultures
Procedure: As a final test, a more severe OGD insult was applied by increasing OGD exposure time from 2.5 hours to 3 hours to help emphasize any NMDAR-independent mechanisms of OGD-induced death.
as §3, §2

[7] = tested on: NMDARs; assay: Modulation of NMDAR function

## CN[C@H](CC(=O)O)C(=O)O [NMDA]
[1]; NMDA at 8 μM and 20 μM
  cell survival: significantly reduced cell survival

## N[C@@H](CCCP(=O)(O)O)C(=O)O [APV]
[2]; APV
  OGD-induced cell death in AAV-CYP-GFP and AAV-GFP-infected neuron cultures: prevented OGD-induced cell death
[2]; administered before and during OGD
  neuroprotection against OGD: highly neuroprotective
[2]; administered during the latent period following OGD insult
  neuroprotection against OGD: much less effective
[2]
  OGD-induced cell death exacerbated by 24S-HC, effect of NMDAR antagonist: rescued

## C[C@H](CCCC(C)(C)O)[C@H]1CC[C@H]2[C@@H]3CC=C4C[C@@H](O)CC[C@]4(C)[C@H]3CC[C@]12C [25-HC, 5-cholestene-3β,25-diol]
[3]
  antagonism of 24S-HC effects on NMDARs: non-competitively antagonizes
[4]; CYP46A1 knockout mouse cultures
  NMDAR-independent neuroprotective effect: did not extend
[4]; WT mouse cultures
  NMDAR-independent neuroprotective effect: did not extend
[5]
  neuroprotection against H2O2 induced toxicity: mild but consistent neuroprotective effect
[6]; 10 μM 25-HC in the presence of 20 μM MK-801, OGD 3 hours
  neuroprotection against MK-801 insensitive OGD-induced cell death: mild but significant neuroprotection
[2]; 10 μM 25-HC incubation during the OGD insult
  OGD-induced cell death without exogenous 24S-HC: alleviated
[2]; 10 μM 25-HC with 1 μM SGE-201
  SGE-201-exacerbated OGD injury: alleviated
[2]; 25-HC before or after OGD insult
  survival rates, treatment before versus after OGD insult: comparable survival rates
[2]; co-treatment 10 μM 25-HC and 2 μM 24S-HC
  OGD-induced cell death relative to 24S-HC and OGD alone: significantly alleviated OGD-induced cell death
[1]; 10 μM 25-HC, 8 μM NMDA + 24S-HC
  24S-HC exacerbation of NMDA toxicity: significantly alleviated
[1]; 10 μM 25-HC, NMDA 8 μM or 20 μM
  neuroprotection against NMDA-induced cell death: no neuroprotection

## C[C@H](CCC(C)(C)O)[C@H]1CC[C@H]2[C@@H]3CC=C4C[C@@H](O)CC[C@]4(C)[C@H]3CC[C@]12C [SGE-201]
[6]; 1 μM SGE-201 in the presence of 20 μM MK-801
  exacerbation of OGD toxicity: failed to exacerbate OGD toxicity
[6]; OGD 3 hours + 20 μM MK-801 + 1 μM SGE-201
  normalized survival: 0.64±0.04
[2]; 1 μM SGE-201
  OGD injury: exacerbated OGD injury

## C[C@]12N[C@H](Cc3ccccc31)c1ccccc12 [MK-801]
[6]; 20 μM MK-801
  cell death after OGD 3 hours: partially rescued
[6]; OGD 3 hours + 20 μM MK-801
  normalized survival: 0.66±0.03
[2]
  OGD-induced cell death exacerbated by 24S-HC, effect of NMDAR antagonist: prevented

## CC(C)[C@@H](O)CC[C@@H](C)[C@H]1CC[C@H]2[C@@H]3CC=C4C[C@@H](O)CC[C@]4(C)[C@H]3CC[C@]12C [24S-HC, 24S-hydroxycholesterol]
[7]
  exogenous concentration needed to potentiate NMDAR function: ~50 nM
[3]
  concentration at which effects on NMDAR function saturate: ~10 µM
[2]; 24S-HC 0.5 μM
  survival compared to OGD alone: significantly poorer survival
[2]; 24S-HC 2 μM, exogenous application, WT rat hippocampal cultures 14 days in vitro
  OGD-induced cell death / survival rate: significantly poorer survival; also recorded: enhanced OGD-induced cell death; also recorded: significantly lower survival rate
[2]; 24S-HC alone
  effect on survival when administered alone (no OGD): Consistent effects of 24S-HC were not observed
[2]; 24S-HC over a range of 50 nM to 2 μM, rat cultures
  concentration dependence of OGD-induced cell death: depended on 24S-HC concentration
[1]; 8 μM NMDA
  NMDA toxicity with 24S-HC co-treatment: exacerbated NMDA toxicity
